# Assay results taken from the NIST ThermoML archive (doi:10.1016/j.jct.2015.02.024).
# ± gives the expanded uncertainty stated by the source.
# Assay: activity coefficient (dimensionless); of the first substance listed, at infinite dilution; xn = mol fraction of the nth substance listed
# Settings: 101 kPa, Liquid, Chromatography, x1 = 0
Compound,activity coefficient (318.15 K),activity coefficient (328.15 K),activity coefficient (338.15 K),activity coefficient (348.15 K),activity coefficient (358.15 K),activity coefficient (368.15 K),activity coefficient (298.15 K),activity coefficient (308.15 K)
C1CCCC1 [cyclopentane] + C[N+]1(CCCO)CCOCC1.O=S(=O)([N-]S(=O)(=O)C(F)(F)F)C(F)(F)F,41 ± 2.8,34.7 ± 2.4,30.6 ± 2.1,27.2 ± 1.9,23.5 ± 1.6,21.4 ± 1.5,–,–
C=CCCCCC [1-heptene] + C[N+]1(CCCO)CCOCC1.O=S(=O)([N-]S(=O)(=O)C(F)(F)F)C(F)(F)F,86.6 ± 5.9,75.8 ± 5.2,69.3 ± 4.7,62.2 ± 4.3,55.7 ± 3.8,51.1 ± 3.5,–,–
C=C(C)c1ccccc1 [(1-methylethenyl)benzene] + C[N+]1(CCCO)CCOCC1.O=S(=O)([N-]S(=O)(=O)C(F)(F)F)C(F)(F)F,5.97 ± 0.41,6.12 ± 0.42,6.28 ± 0.43,6.41 ± 0.44,6.55 ± 0.45,6.65 ± 0.45,–,–
CCCCO [butan-1-ol] + C[N+]1(CCCO)CCOCC1.O=S(=O)([N-]S(=O)(=O)C(F)(F)F)C(F)(F)F,3.23 ± 0.22,3.07 ± 0.21,2.96 ± 0.2,2.84 ± 0.19,2.73 ± 0.19,2.64 ± 0.18,–,–
C1CCCCC1 [cyclohexane] + C[N+]1(CCCO)CCOCC1.O=S(=O)([N-]S(=O)(=O)C(F)(F)F)C(F)(F)F,66 ± 4.5,55.7 ± 3.8,48.3 ± 3.3,42.2 ± 2.9,36.3 ± 2.5,32.2 ± 2.2,–,–
CO [methanol] + C[N+]1(CCCO)CCOCC1.O=S(=O)([N-]S(=O)(=O)C(F)(F)F)C(F)(F)F,0.945 ± 0.06,0.929 ± 0.059,0.915 ± 0.058,0.899 ± 0.057,0.884 ± 0.056,0.872 ± 0.056,–,–
"Cc1ccccc1C [1,2-dimethylbenzene] + C[N+]1(CCCO)CCOCC1.O=S(=O)([N-]S(=O)(=O)C(F)(F)F)C(F)(F)F",5.73 ± 0.39,5.76 ± 0.39,5.78 ± 0.39,5.81 ± 0.4,5.83 ± 0.4,5.86 ± 0.4,–,–
CC(C)=O [acetone] + C[N+]1(CCCO)CCOCC1.O=S(=O)([N-]S(=O)(=O)C(F)(F)F)C(F)(F)F,0.486 ± 0.037,0.517 ± 0.039,0.543 ± 0.04,0.572 ± 0.041,0.596 ± 0.042,0.63 ± 0.04,–,–
CCc1ccccc1 [ethylbenzene] + C[N+]1(CCCO)CCOCC1.O=S(=O)([N-]S(=O)(=O)C(F)(F)F)C(F)(F)F,7.33 ± 0.5,7.28 ± 0.5,7.22 ± 0.49,7.18 ± 0.49,7.13 ± 0.49,7.09 ± 0.48,–,–
C=COC(C)=O [vinyl acetate] + C[N+]1(CCCO)CCOCC1.O=S(=O)([N-]S(=O)(=O)C(F)(F)F)C(F)(F)F,1.87 ± 0.13,1.91 ± 0.13,1.94 ± 0.13,1.98 ± 0.13,2 ± 0.14,2.03 ± 0.14,–,–
c1ccsc1 [thiophene] + C[N+]1(CCCO)CCOCC1.O=S(=O)([N-]S(=O)(=O)C(F)(F)F)C(F)(F)F,1.89 ± 0.13,1.92 ± 0.13,1.95 ± 0.13,1.98 ± 0.13,2 ± 0.14,2.03 ± 0.14,–,–
Cc1ccccc1 [toluene] + C[N+]1(CCCO)CCOCC1.O=S(=O)([N-]S(=O)(=O)C(F)(F)F)C(F)(F)F,4.03 ± 0.27,4.08 ± 0.28,4.11 ± 0.28,4.16 ± 0.28,4.19 ± 0.29,4.22 ± 0.29,–,–
O [water] + C[N+]1(CCCO)CCOCC1.O=S(=O)([N-]S(=O)(=O)C(F)(F)F)C(F)(F)F,1.43 ± 0.09,1.36 ± 0.09,1.28 ± 0.08,1.21 ± 0.08,1.15 ± 0.07,1.1 ± 0.07,–,–
C#CCCCCC [1-heptyne] + C[N+]1(CCCO)CCOCC1.O=S(=O)([N-]S(=O)(=O)C(F)(F)F)C(F)(F)F,20 ± 1.4,19.2 ± 1.3,18.4 ± 1.3,17.6 ± 1.2,16.9 ± 1.2,16.3 ± 1.1,–,–
CCCO [propan-1-ol] + C[N+]1(CCCO)CCOCC1.O=S(=O)([N-]S(=O)(=O)C(F)(F)F)C(F)(F)F,2.06 ± 0.14,2.01 ± 0.14,1.96 ± 0.13,1.92 ± 0.13,1.88 ± 0.13,1.84 ± 0.12,–,–
CCOCC [diethyl ether] + C[N+]1(CCCO)CCOCC1.O=S(=O)([N-]S(=O)(=O)C(F)(F)F)C(F)(F)F,4.94 ± 0.34,5 ± 0.34,5.05 ± 0.34,5.1 ± 0.35,5.14 ± 0.35,5.19 ± 0.35,–,–
CCCCCCCCCC [decane] + C[N+]1(CCCO)CCOCC1.O=S(=O)([N-]S(=O)(=O)C(F)(F)F)C(F)(F)F,624 ± 43,543 ± 37,479 ± 33,419 ± 29,363 ± 25,328 ± 23,–,–
CCC[N+](=O)[O-] [1-nitropropane] + C[N+]1(CCCO)CCOCC1.O=S(=O)([N-]S(=O)(=O)C(F)(F)F)C(F)(F)F,1.24 ± 0.08,1.26 ± 0.08,1.28 ± 0.08,1.3 ± 0.08,1.32 ± 0.09,1.34 ± 0.09,–,–
CCC(=O)OC [methyl propanoate] + C[N+]1(CCCO)CCOCC1.O=S(=O)([N-]S(=O)(=O)C(F)(F)F)C(F)(F)F,1.45 ± 0.1,1.51 ± 0.1,1.57 ± 0.1,1.63 ± 0.11,1.68 ± 0.11,1.74 ± 0.12,–,–
C=CCCCC [hex-1-ene] + C[N+]1(CCCO)CCOCC1.O=S(=O)([N-]S(=O)(=O)C(F)(F)F)C(F)(F)F,58.2 ± 4,51.7 ± 3.5,45.2 ± 3.1,40.5 ± 2.8,35.9 ± 2.5,–,–,–
CCCCCC [hexane] + C[N+]1(CCCO)CCOCC1.O=S(=O)([N-]S(=O)(=O)C(F)(F)F)C(F)(F)F,154 ± 11,122 ± 8,–,–,–,–,267 ± 18,201 ± 14
C=CCCCCCC [oct-1-ene] + C[N+]1(CCCO)CCOCC1.O=S(=O)([N-]S(=O)(=O)C(F)(F)F)C(F)(F)F,133 ± 9,117 ± 8,106 ± 7,94.6 ± 6.5,85.2 ± 5.8,77.2 ± 5.3,–,–
CCCC=O [butanal] + C[N+]1(CCCO)CCOCC1.O=S(=O)([N-]S(=O)(=O)C(F)(F)F)C(F)(F)F,1.37 ± 0.09,1.4 ± 0.09,1.43 ± 0.09,1.45 ± 0.1,1.48 ± 0.1,1.5 ± 0.1,–,–
CC#N [acetonitrile] + C[N+]1(CCCO)CCOCC1.O=S(=O)([N-]S(=O)(=O)C(F)(F)F)C(F)(F)F,0.479 ± 0.037,0.495 ± 0.038,0.513 ± 0.038,0.528 ± 0.039,0.545 ± 0.04,0.561 ± 0.04,–,–
